Results: patent US9012497B2, “Cyclohexyl carbamate compounds as active anti-cellulite ingredients” (Symrise AG, priority 2010, dated 2015)

How the values were obtained:
[1] = molecular target: T1, pancreatic lipase (PL) (Sus scrofa, UniProt P00591); assay: Inhibition of PL, MUF oleate hydrolysis; assay type: biochemical; conditions: mean values of at least 2 independent tests
T1 construct: purchased Sigma-Aldrich
T1 sequence (P00591 1-450): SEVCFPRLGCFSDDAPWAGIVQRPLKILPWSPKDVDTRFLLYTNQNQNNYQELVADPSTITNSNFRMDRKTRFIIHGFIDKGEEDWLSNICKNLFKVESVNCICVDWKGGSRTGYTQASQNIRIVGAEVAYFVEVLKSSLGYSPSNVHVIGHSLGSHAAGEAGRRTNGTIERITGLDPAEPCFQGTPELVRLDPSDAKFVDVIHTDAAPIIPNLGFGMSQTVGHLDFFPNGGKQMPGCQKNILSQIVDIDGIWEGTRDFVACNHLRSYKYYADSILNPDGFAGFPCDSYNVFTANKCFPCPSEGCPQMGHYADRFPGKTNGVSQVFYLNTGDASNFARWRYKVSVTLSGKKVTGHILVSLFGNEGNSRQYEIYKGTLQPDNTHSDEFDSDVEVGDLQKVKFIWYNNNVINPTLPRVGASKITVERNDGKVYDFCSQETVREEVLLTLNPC
Excerpt: Lipogenesis is perceived as the storage of triglycerides in adipocytes. The inhibition of this storage can take place by means of the inhibition of the activity of extracellular lipoprotein lipase (LPL) in that the hydrolysis of extracellular triglycerides and therefore the absorption of free fatty acids by adipocytes are reduced. As a preliminary test, the inhibition of pancreatic lipase (PL) is investigated.
PL (Sigma-Aldrich), in the presence of test substances in different use concentrations has methylumbelliferyl oleate (MUF oleate) added as a substrate. Fluorescent methylumelliferon (MUF), is produced by hydrolysis of the MUF oleate by PL and is quantified. The inhibition of the hydrolysis of the MUF oleate is a measure of the inhibition of activity of the PL.
[formula] wherein MUF test substance=MUF concentration of the wells with test substance and with PL MUF control=MUF concentration of the wells without test substance, but with PL MUF control without PL=MUF concentration of the wells without test substance and without PL
The IC50 is calculated from the inhibition of the PL [%] in a series of dilutions of tested samples. This is the concentration, at which the activity of the PL is 50% inhibited.

[2] = test system: ex vivo pig skin model including subcutis fat layer; assay: Lipolysis assay, ex vivo pig skin model, free glycerol release; assay type: cell-based; conditions: conc. 0.1% in cosmetic test preparation, topical on ex vivo pig skin, 24 hours, versus placebo
Excerpt: Full thickness pig skin patches (pig skin model including subcutis fat layer as described in EP 1 939 279) are excised from the dorsal part of young pig slaughtered for meat. The ex vivo pig skin models have a size of 7×3 mm (diameter×height). They are placed on a titanium grid dipped in culture medium. On top of the skin samples formulations are applied. In parallel to a cosmetic test preparation containing one or more compounds of formula (I) a placebo preparation without any compound of formula (I) is applied as reference (blank).
After 24 hours of incubation, the quantification of free glycerol in the medium surrounding the pig skin models was performed. The glycerol is released by the cells after hydrolysis of triglycerides in the cells of the adipose tissue and is a measure of the lipolysis of the pig skin models. The quantification of the free glycerol is carried out based on an enzymatic method with a free glycerol reagent.
Cosmetic Test Preparation:
Phases A and B are heated to 70° C. separately. Pemulen TR1 as well as Ultrez-21 are dispersed in phase B when heated to 70° C. Phase B/C is added to phase A by mixing with an Ultra Turrax, followed by emulsifying. Phase D is slowly added to phase A/B/C using a paddle mixer and a pH 5.5-6 is adjusted. The formulation is cooled down while mixing with a paddle mixer. Phase E is prepared by dissolving one or more compounds of formula (I) in Hydrolite-5. Subsequently, phase E is added to the mixture of phase A-D.
The stimulation of the lipolysis in the presence of test substances is calculated according to the following equation:
[formula] wherein A test substance=absorption of the wells with medium of ex vivo skin models, on which the formulation containing the test substance was applied A placebo=absorption of the wells with medium of ex vivo skin models, on which the placebo without test substance was applied

[3] = test system: 3T3 cells; assay: ATP assay, inhibition of proliferation; assay type: cell-based; conditions: Mus musculus, NIH3T3, 48 h, non-cytotoxic dilutions, mean values of at least 2 independent tests
Description: 3T3 cells (mouse […] fibroblasts) were seeded in 96-well plates. After 24 h cultivation at 37° C. and 5% CO2 in DMEM (Dulbecco's Modified Eagle Medium), cells were treated with test substances for another 48 h. […] ATP content in the cells is measured by
The inhibition of proliferation was calculated by:
[formula] wherein RLU test substance=relative luminescent units of the wells with test substance and with cells RLU control=relative luminescent units of the wells without test substance, but with cells RLU control without cells=relative luminescent units of the wells without test substance and without cells
The IC50 is calculated from the proliferation inhibition [%] in a series of non-cytotoxic dilutions of tested samples. This is the concentration at which the proliferation is 50% inhibited.

Row | IC50 [1] | Structure (SMILES) | Stimulation of lipolysis [2] | IC50 [3]
1 | 1380 µM | CCCCNC(=O)OC1C(C)CCC(C)C1C (stereo not drawn) [BIO1617, Butyl-carbamic acid 2,3,6-trimethyl-cyclohexyl ester] | 21% | 244 µM
2 | 780 µM | CCCCNC(=O)OC1CCCCC1C(C)C (stereo not drawn) [BIO1841, Butyl-carbamic acid 2-isopropyl-cyclohexyl ester] | 25% | 255 µM
3 | 720 µM | CCC(C)NC(=O)OC1CCCC(C)C1C (stereo not drawn) [BIO1845, sec-Butyl-carbamic acid 2,3-dimethyl-cyclohexyl ester] | 29% | 345 µM
